Columns and labels:
[1] = DPPH radical-scavenging assay; conditions: compounds 10–160 μM, 100 μM DPPH, 30 min, n = 3
Procedure: Stable free radical 1,1-diphenyl-2-picrylhydrazyl (DPPH) (Sigma-Aldrich) was applied to test the potential radical-scavenging activity of the coumarin-chalcone derivatives. In brief, the compounds (10–160 μM) were added to an ethanol solution containing 100 μM DPPH. The mixture was vortexed for 15 sec, left to stand for 30 min at room temperature, and scavenging capacity was measured at a wavelength of 517 nm using a Multiskan GO microplate spectrophotometer (Thermo Fisher Scientific, Waltham, MA, USA).

CRE-GFP 293 cells [2] = test: CRE-GFP 293 reporter cell assay (flow cytometry); type: cell-based, Human; conditions: for CRE-motif-driven GFP expression: 10 μM, 5 h, in the presence of Ca2+ ionophore (2 μM)
Description: Using the pCRE-MetLuc2-Reporter plasmid (Clontech, Mountain View, CA, USA) as a template, the DNA fragment containing the cAMP response element (CRE) motifs and TATA-like promoter (PTAL) flanked by MluI and AgeI restriction sites was amplified by PCR using sense ([…], MluI site underlined) and antisense ([…], AgeI site underlined) primers. The amplified CRE-PTAL promoter fragment was cloned into pGEM-T Easy (Promega, Madison, WI, USA) and sequenced. The CRE-PTAL-containing MluI/AgeI fragment and GFP-containing AgeI/NotI fragment (from pEGFP-N1; Clontech) were subcloned into MluI- and NotI-digested pcDNA5/FRT/TO (Novagen, Madison, WI, USA). The resulting construct with CRE-PTAL-driving GFP was used to establish 293 GFP reporter cells by targeting insertion into Flp-In-293 cells according to the supplier's instructions (Invitrogen). The cells were grown in a medium containing 5 μg/ml blasticidin and 100 μg/ml hygromycin.
On day 1, CRE-GFP 293 cells were seeded into 48-well plates (5 × 10^4/well). After 24 h, cells were treated with Ca^2+ ionophore (2 μM) (Sigma-Aldrich) for 0–24 h. Cell viability was measured using 3,(4,5-dimethylthiazol-2-yl)-2,5-diphenyltetrazolium bromide (MTT) assay (Sigma-Aldrich). The absorbance of the insoluble purple formazan dye was quantified at 570 nm on a μQuant microplate spectrophotometer (Bio-Tek). In addition, the cells were treated with the Ca^2+ ionophore A23187 (0.5–10 μM) (Sigma-Aldrich) for 5 h, followed by analysis of GFP fluorescence by flow cytometry (Becton–Dickinson, Franklin Lakes, NJ, USA) with excitation/emission wavelengths at 488/507 nm. To monitor CREB activation, cells were treated with forskolin or coumarin-chalcone derivatives (5–10 μM) in the presence or absence of Ca^2+ ionophore (2 μM) for 5 h, and GFP fluorescence was analysed.
(§1) To monitor the cAMP-mediated signal transduction pathway, CRE-GFP 293 cells in 6-well plates (1 × 10^6/well) were pretreated with kinase inhibitor H-89 (LC Laboratories, Woburn, MA, USA), KN-62 (Cayman Chemical, Ann Arbor, MI, USA), U0126 (LC Laboratories), or wortmannin (LC Laboratories) (10 μM) for 4 h before forskolin or LM-021 (10 μM) addition for 5 h. GFP fluorescence/protein and total/phosphorylated PKA, CaMKII, ERK, PI3K, and CREB levels were examined. In addition, Aβ-GFP or ∆K280 tauRD-DsRed SH-SY5Y cells were treated with retinoic acid (10 μM) on day 1, followed by the addition of LM-021 (5 or 10 μM) and doxycycline (5 or 2 μg/ml) on day 2, as described. Kinase inhibitors (10 μM) were added on day 6. On day 8, the cells were collected for protein expression analysis of BDNF, BCL2 (BCL2 apoptosis regulator), and BAX (BCL2 associated X, apoptosis regulator), and total/phosphorylated PKA, CaMKII, ERK, PI3K, and CREB. Also, cells were stained with DAPI and assessed for neurite outgrowth as described above.

Aβ-GFP SH-SY5Y cells [3] = test: High content analysis of neurite outgrowth in Aβ-GFP cells; type: cell-based, Human
Procedure: (§2) On day 1, Aβ-GFP or ∆K280 tauRD-DsRed SH-SY5Y cells were plated into 24-well plates (6 × 10^4/well) followed by addition of retinoic acid. On day 2, cells were treated with coumarin-chalcone derivatives (5 or 10 μM) and with doxycycline (5 or 2 μg/ml) to induce the expression of Aβ-GFP or ∆K280 tauRD-DsRed. On day 8, 4% paraformaldehyde, 0.1% Triton X-100, and 3% BSA were used to fix, permeabilize, and block cells, respectively. Subsequently, the cells were stained with TUBB3 (neuronal class III β-tubulin) primary antibody (1 : 1000; Covance, Princeton, NJ, USA) at 4°C overnight. Goat anti-rabbit Alexa Fluor 555 secondary antibody (1 : 1000; Thermo Fisher Scientific) was then added, followed by a 3 h incubation at room temperature. Following staining nuclei with 4′,-6-diamidino-2-phenylindole (DAPI) (0.1 μg/ml; Sigma-Aldrich), the neurons were imaged by using the HCA system and analysed by using the Neurite Outgrowth Application Module (MetaXpress; Molecular Devices).
as §1

[4] = test system: ∆K280 tauRD-DsRed SH-SY5Y cells; test: High content analysis of neurite outgrowth in ΔK280 tauRD-DsRed cells; type: cell-based, Human; conditions: inhibitor 10 μM on day 6, LM-021 10 μM
Procedure: as §2, §1

CRE-GFP 293 cells [5] = test: Western blot in CRE-GFP 293 cells; type: cell-based, Human; conditions: inhibitor 10 μM, LM-021 10 μM, without Ca2+ ionophore, immunoblot
Procedure: as §1
Total proteins from CRE-GFP 293 and Aβ-GFP, ∆K280 tauRD-DsRed SH-SY5Y cells were extracted using lysis buffer (50 mM Tris-HCl (pH 8.0), 150 mM NaCl, 1 mM EDTA (pH 8.0), 1 mM EGTA (pH 8.0), 0.1% SDS, 0.5% sodium deoxycholate, 1% Triton X-100) containing phosphatase and protease inhibitor cocktails (Sigma-Aldrich). Protein concentrations were measured using a protein assay kit (Bio-Rad, Hercules, CA, USA), and 20 μg of proteins was separated with 10% SDS-PAGE and blotted onto polyvinylidene difluoride (PVDF) membranes (Sigma-Aldrich). […]

Aβ-GFP SH-SY5Y cells [6] = test: Western blot in Aβ-GFP SH-SY5Y cells; type: cell-based, Human; conditions: inhibitor 10 μM on day 6, LM-021 5 μM
Procedure: as §1
(§3) Total proteins from CRE-GFP 293 and Aβ-GFP, ∆K280 tauRD-DsRed SH-SY5Y cells were extracted using lysis buffer (50 mM Tris-HCl (pH 8.0), 150 mM NaCl, 1 mM EDTA (pH 8.0), 1 mM EGTA (pH 8.0), 0.1% SDS, 0.5% sodium deoxycholate, 1% Triton X-100) containing phosphatase and protease inhibitor cocktails (Sigma-Aldrich). Protein concentrations were measured using a protein assay kit (Bio-Rad, Hercules, CA, USA), and 20 μg of proteins was separated with 10% SDS-PAGE and blotted onto polyvinylidene difluoride (PVDF) membranes (Sigma-Aldrich). After blocking, the membrane blot was incubated with primary antibody against GFP (1 : 500; Santa Cruz Biotechnology, Santa Cruz, CA, USA), PKA (1 : 1000; R&D Systems, Minneapolis, MN, USA), p-PKA (T197) (1 : 1000; Cell Signaling, Danvers, MA, USA), ERK (1 : 500; Cell Signaling), p-ERK (T202/Y204) (1 : 500; Cell Signaling), CaMKII (1 : 1000; Santa Cruz Biotechnology), p-CaMKII (T286) (1 : 1000; Cell Signaling), CREB (1 : 1000; Santa Cruz Biotechnology), p-CREB (S133) (1 : 1000; Millipore, Billerica, MA, USA), BDNF (1 : 500; Santa Cruz Biotechnology), BCL2 (1 : 500; BioVision), BAX (1 : 500; BioVision), GAPDH (glyceraldehyde-3-phosphate dehydrogenase, as a loading control) (1 : 1000; MDBio, Taipei, Taiwan), or β-tubulin (1 : 1000, Sigma-Aldrich, as a loading control). The immune complexes were visualized using horseradish peroxidase-conjugated goat anti-mouse or goat anti-rabbit IgG antibody (1 : 5000, GeneTex, Irvine, CA, USA) and a chemiluminescent substrate (Millipore).

[7] = test system: ∆K280 tauRD-DsRed SH-SY5Y cells; test: Western blot in ΔK280 tauRD-DsRed SH-SY5Y cells; type: cell-based, Human; conditions: inhibitor 10 μM on day 6, LM-021 10 μM
Procedure: as §1, §3

Aβ-GFP SH-SY5Y cells [8] = test: High content analysis of Aβ-GFP fluorescence; type: cell-based, Human
Procedure: Human neuroblastoma SH-SY5Y-derived Aβ-GFP [23] and ∆K280 tauRD-DsRed cells were kept in DMEM/nutrient mixture F12 (DMEM/F12) containing 10% FBS, 5 μg/ml blasticidin, and 100 μg/ml hygromycin (InvivoGen, San Diego, CA, USA). Doxycycline (Sigma-Aldrich) was applied to induce the expression of Aβ-GFP (5 μg/ml doxycycline) or ∆K280 tauRD-DsRed (2 μg/ml doxycycline).
On day 1, Aβ-GFP or ∆K280 tauRD-DsRed SH-SY5Y cells were seeded into 96-well plates (2.5 × 10^4/well) and treated with retinoic acid (10 μM; Sigma-Aldrich) to prompt neuronal differentiation. […] Image Acquisition and Analysis Software (MetaXpress) (Molecular Devices, Sunnyvale, CA, USA) was used to analyse the images. CellROX Orange (5 μM; Molecular Probes, Eugene, OR, USA) (for Aβ-GFP cells) or dichloro-dihydro-fluorescein diacetate (DCFH-DA, 10 μM; Invitrogen) (for ∆K280 tauRD-DsRed cells) was added to the cells and incubated at 37°C for 30 min.

Aβ-GFP SH-SY5Y cells [9] = test: ROS assay (CellROX Orange) in Aβ-GFP cells; type: cell-based, Human; conditions: tested 1.2–5 μM
Procedure: On day 1, Aβ-GFP or ∆K280 tauRD-DsRed SH-SY5Y cells were seeded into 96-well plates (2.5 × 10^4/well) and treated with retinoic acid (10 μM; Sigma-Aldrich) to prompt neuronal differentiation. […] On day 8, cells were stained with Hoechst 33342 (0.1 μg/ml; Sigma-Aldrich) for 30 min, and cell images were automatically captured at excitation/emission wavelengths of 482/[…] (GFP fluorescence) or 543/593 nm (DsRed fluorescence) using a high content analysis (HCA) system (Micro Confocal High-Content Imaging System). Image Acquisition and Analysis Software (MetaXpress) (Molecular Devices, Sunnyvale, CA, USA) was used to analyse the images. CellROX Orange (5 μM; Molecular Probes, Eugene, OR, USA) (for Aβ-GFP cells) or dichloro-dihydro-fluorescein diacetate (DCFH-DA, 10 μM; Invitrogen) (for ∆K280 tauRD-DsRed cells) was added to the cells and incubated at 37°C for 30 min. The HCA system was used to measure intracellular ROS at 531/593 nm (CellROX Orange fluorescence) or 482/536 nm (DCFH-DA fluorescence) of excitation/emission wavelengths.

Aβ-GFP SH-SY5Y cells [10] = test: Real-time PCR of Aβ-GFP RNA; type: cell-based, Human; conditions: 5 μM
Procedure: To measure the Aβ-GFP/tauRD-DsRed RNA expression on day 8, total RNA was extracted from collected cells and reverse-transcribed to cDNA (SuperScript III reverse transcriptase; Invitrogen, Waltham, MA, USA). Real-time quantitative PCR was performed using 100 ng of cDNA and the gene-specific TaqMan fluorogenic probe PN4331348 (EGFP) or customized Assays-by-Design probe for DsRed and 4326321E (HPRT1) (StepOnePlus Real-time PCR system, Applied Biosystems, Foster City, CA, USA). The RNA expression level was calculated using the formula 2^ΔCt, ΔCT = CT (control) − CT (target), in which CT indicates the cycle threshold.

caspase 1 = test: Caspase 1 activity in Aβ-GFP cells; type: cell-based, Human; conditions: 5 μM, vs untreated cells
Procedure: (§4) Aβ-GFP or ∆K280 tauRD-DsRed SH-SY5Y cells were seeded into 6-well plates (5 × 10^5/well) and treated with retinoic acid, coumarin-chalcone derivatives, and doxycycline as previously described. On day 8, cells were collected and lysates were prepared with six freeze/thaw cycles. The supernatant was collected by centrifugation, followed by measurement of the caspase 1 activity in 50 μg aliquots of cell extract using the ICE fluorometric assay kit (BioVision, Milpitas, CA, USA). Following incubation of the mixture at 37°C for 2 h, fluorescence was measured with excitation/emission wavelengths at 400/505 nm (FLx800 fluorescence microplate reader). In addition, the collected cells were lysed by sonication. Acetylcholinesterase (AChE) activity in the supernatant was determined in 10 μg aliquots of cell extracts using the AChE activity assay kit (Sigma-Aldrich) according to the manufacture's protocol. Finally, the absorbance at 412 nm was measured using a Multiskan GO spectrophotometer (Thermo Fisher Scientific).

[11] = test system: Acetylcholinesterase (AChE); test: AChE activity in Aβ-GFP cells; type: cell-based; conditions: 5 μM, vs untreated cells
Procedure: as §4

## O=c1c(O)c(-c2ccc(O)cc2)oc2cc(O)cc(O)c12 [Kaempferol, kaempferol, reference compound]
[1]
  EC50: 28 µM

## N#CC(=C(/N)Sc1ccccc1N)/C(C#N)=C(/N)Sc1ccccc1N [U0126]
CRE-GFP 293 cells [2]; inhibitor 10 μM 4 h before LM-021 10 μM, presence or absence of Ca2+ ionophore
  Effect of kinase inhibitor on LM-021-activated GFP levels: attenuated the GFP levels
Aβ-GFP SH-SY5Y cells [3]; inhibitor 10 μM on day 6, LM-021 5 μM
  Effect of kinase inhibitor on LM-021-improved neurite length, processes, and branches: counteracted these improvements
[4]
  Effect of kinase inhibitor on LM-021-ameliorated neurite length and branch length: reversed these effects
CRE-GFP 293 cells [5]
  Effect of kinase inhibitor on increased p-CREB and GFP protein levels: significantly reduced
Aβ-GFP SH-SY5Y cells [6]
  Effect of kinase inhibitor on LM-021-upregulated kinase phosphorylation: normalized p-ERK
  Effect of kinase inhibitor on LM-021 increase in p-CREB, pro-BDNF, m-BDNF, and BCL2: attenuated the increase
[7]
  Effect of kinase inhibitor on LM-021-upregulated kinase phosphorylation: attenuated the rescue of p-ERK
  Effect of kinase inhibitor on LM-021 upregulation of p-CREB, pro-BDNF, m-BDNF, and BCL2: attenuated the upregulation

## COc1cc(/C=C/C(=O)CC(=O)/C=C/c2ccc(O)c(OC)c2)ccc1O [Curcumin, reference compound]
Aβ-GFP SH-SY5Y cells [8]; Homo sapiens, SH-SY5Y, read-out: EC50 in Aβ aggregation inhibition (GFP fluorescence)
  EC50: 6.1 µM
Aβ-GFP SH-SY5Y cells [8]; tested 1.2–5 μM, day 8
  Concentration significantly augmenting green fluorescence intensity (Aβ-GFP): 2.5 to 5 µM
Aβ-GFP SH-SY5Y cells [9]
  Concentration effectively decreasing ROS levels caused by Aβ overexpression: 2.5 to 5 µM
Aβ-GFP SH-SY5Y cells [10]
  Aβ-GFP RNA levels: did not significantly modify
Caspase 1
  Caspase 1 activity: reduced
[11]
  AChE activity: reduced
Aβ-GFP SH-SY5Y cells [3]; 5 μM
  Neurite length, processes, and branches: successfully ameliorated

## C=C[C@@]1(C)CC(=O)[C@]2(O)[C@@]3(C)[C@@H](O)CCC(C)(C)[C@@H]3[C@H](O)[C@H](OC(C)=O)[C@@]2(C)O1 [Forskolin, forskolin]
CRE-GFP 293 cells [2]
  CRE-motif-driven GFP expression: significantly increased
CRE-GFP 293 cells [2]; listed as forskolin
  CRE-motif-driven GFP expression: significantly activated

From PMC8605905 (Oxidative Medicine and Cellular Longevity, 2021)
